Measured values published in publication PMC7467771, “Lipophilic Arginine Esters: The Gateway to Preservatives without Side Effects” (Molecular Pharmaceutics, 2020).
Read-outs that look alike come from different tables or passages of the source.

How the values were obtained:
red blood cells = settings: cited from earlier work
E. coli = settings: against E. coli; cited from earlier work
Caco-2 cells = experiment: resazurin assay, cytotoxicity; format: cell-based; settings: Caco-2, 4 h incubation; for EC50 (concentration causing 50% cell death): calculated from cell viability data
Method: The resazurin assay was used to determine the cytotoxic potential of Arg-esters according to a previous method with some minor modifications.[15] Caco-2 cells were seeded in a 24-well cell culture plate at 25 000 cells per well density and kept in an incubator at 37 °C under a 95% relative humidity environment and 5% CO2 level. Minimum essential medium (MEM) supplemented with streptomycin (0.1 mg […]), penicillin (100 units […]), and fetal calf serum (FCS) 10% (v/v) was used for growing cells. During a growth period of 14 days, the medium was replaced every other day. On the day of the experiment, test solutions of Arg-OL and Arg-DT esters were prepared in 25 mM HBS (HEPES buffered saline) buffer (pH 7.4) in the concentration range of 1000–3000 μg mL^–1. For comparison, the same concentrations of BAC and cetrimide were also prepared in HBS. HBS without any addition was used as a positive control, and Triton X-100 (2%, v/v) in HBS was used as a negative control. The growth medium from all wells of the cell culture plate was removed, and cells were washed three times with HBS preheated at 37 °C. Each test solution and controls were then added to individual wells in a volume of 500 μL, and the cell culture plate was incubated under the same conditions. After 4 h, the solution from each well was removed, and cells were washed with HBS (pH 7.4) preheated at 37 °C. Then, 500 μL of resazurin (2.2 mM) per well was added and incubated for further 3 h under the same conditions. Afterward, the fluorescence of the supernatant from each well was measured at the excitation wavelength of 540 nm and an emission wavelength of 590 nm. Cell viability was calculated by the equation: [drawing 4]

red blood cells (RBC) = experiment: hemolysis study; format: cell-based; settings: human RBC, 1 h, 37 °C, PBS pH 7.4
Method: The hemolysis test was performed with red blood cells (RBC) to evaluate the potential toxic effect of Arg-surfactants on human cells.[18] Human RBC concentrate was kindly donated by the Tirol Kliniken GmbH, Innsbruck, Austria, and stored at 4 °C until use. RBC concentrate (0.556 mL) was freshly diluted by adding sterile Dulbecco’s PBS (pH 7.4) (1.944 mL) before the test to obtain an equivalent amount of whole blood (EWB). Then EWB was 50 times diluted in sterile Dulbecco’s PBS (pH 7.4). The diluted blood on visual inspection was turbid and settled down upon leaving undisturbed, indicating no cell lysis. Arg-surfactant stock solutions were prepared in the concentration range of 10–5000 μg mL^–1 in PBS. For comparison, BAC and cetrimide solutions were prepared in the same concentration range in PBS. For the assay, 10 μL of each test sample was mixed with 190 μL of diluted blood, resulting in the testing final concentrations of 0.5–250 μg mL^–1. For the positive control, 10 μL of 20% v/v Triton X-100 and, for the negative control, 10 μL of sterile Dulbecco’s PBS were mixed with 190 μL of diluted blood. All samples and controls were incubated for 1 h at 37 °C with shaking. After centrifugation at 10 000 rpm for 60 s, aliquots of 100 μL were withdrawn from the supernatants and transferred to a 96-well plate. Absorbance was measured at a wavelength of 420 nm. The extent of hemolysis as a percentage was determined by using the following equation: [drawing 6]

[1] = system: Bacillus subtilis ATCC 6633; experiment: disk diffusion method; format: cell-based; settings: test solution 10 mg mL^–1, disks about 6 mm, overnight 37 °C
Method: (§1) Following bacterial strains were used for antimicrobial susceptibility testing: Escherichia coli ATCC 25922, Staphylococcus aureus ATCC 29213, Bacillus subtilis ATCC 6633, and Enterococcus faecalis ATCC 19433, which were obtained from the American Type Culture Collection (ATCC, Virginia, USA).
(§2) The disk diffusion method was used for the initial assessment of the antimicrobial activity of Arg-esters. Mueller Hinton agar (MHA, Biomerieux) medium was prepared according to the manufacturer protocol and poured into Petri dishes. All testing microorganisms were dissolved in saline and set to a 0.5 McFarland standard turbidity. This corresponds to a bacterial concentration of 1.5 × 10^8 colony-forming units per milliliter (CFU mL^–1). The bacterial suspension was then swabbed over solidified MHA Petri dishes ensuring homogeneous distribution. The test solutions of Arg-OL, Arg-DT, BAC, and cetrimide were prepared in water with 10% (v/v) DMSO at a concentration of 10 mg mL^–1. Water with 10% (v/v) DMSO was used as a negative control. The diffusion disks of about 6 mm in diameter were prepared from Whatman filter paper. After immersing disks in the above-prepared test solutions, they were placed on MHA plates already swabbed with different bacteria. After overnight incubation of Petri dishes at 37 °C, clear zones of bacterial growth inhibition around disks were measured.

[2] = system: Enterococcus faecalis ATCC 19433; experiment: disk diffusion method; format: cell-based; settings: test solution 10 mg mL^–1, disks about 6 mm, overnight 37 °C
Method: as §1, §2

[3] = system: Escherichia coli ATCC 25922; experiment: disk diffusion method; format: cell-based; settings: test solution 10 mg mL^–1, disks about 6 mm, overnight 37 °C
Method: as §1, §2

[4] = system: Staphylococcus aureus ATCC 29213; experiment: disk diffusion method; format: cell-based; settings: test solution 10 mg mL^–1, disks about 6 mm, overnight 37 °C
Method: as §1, §2

[5] = system: Bacillus subtilis ATCC 6633; experiment: MIC testing by the microdilution method; format: cell-based; settings: microdilution, overnight 37 °C, tested 5000 to 5 μg mL^–1
Method: as §1
(§3) The MIC is the lowest concentration of a substance that leads to a clearly visible growth inhibition after a defined incubation period. To evaluate the MIC of Arg-DT, Arg-OL, BAC, and cetrimide, a microdilution test was performed according to the guidelines of the Clinical and Laboratory Standards Institute.[19] First of all, similarly, as for the disk diffusion test, microorganisms were dissolved in saline and set to a 0.5 McFarland standard turbidity. This corresponds to a bacterial concentration of 1.5 × 10^8 colony-forming units per milliliter (CFU mL^–1); 50 μL of the bacterial suspension was added to 10 mL of Mueller Hinton Bouillon (MHB, Becton Dickinson, New Jersey, USA). The stock solutions were prepared as follows: the test compounds Arg-OL, Arg-DT, BAC, and cetrimide were dissolved in water with 10% (v/v) DMSO at a concentration of 10 mg mL^–1. The obtained solutions were used to prepare serial dilutions. The tested concentration for each substance ranged from 5000 to 5 μg mL^–1. Each test sample was added to a flat-bottomed tissue plate well in the volume of 75 μL. The first well of the tissue plate containing 75 μL of water with 10% (v/v) DMSO instead of any test sample was used as a positive control. Finally, 75 μL of the bacterial suspension was added to each well, and the plates were incubated at 37 °C overnight.
(§4) Before measuring the optical density (OD), plates were shaken for 15 min at 250 rpm. The OD was measured using the Bio-Rad 680 microplate reader (Hercules, California, USA) at a wavelength of 490 nm. Inhibition of bacterial growth was defined as a reduction of growth for at least 5 log units. Experiments were performed three times under analogous conditions for each bacterial strain and each tested sample.

[6] = system: Enterococcus faecalis ATCC 19433; experiment: MIC testing by the microdilution method; format: cell-based; settings: microdilution, overnight 37 °C, tested 5000 to 5 μg mL^–1
Method: as §1, §3, §4

[7] = system: Escherichia coli ATCC 25922; experiment: MIC testing by the microdilution method; format: cell-based; settings: microdilution, overnight 37 °C, tested 5000 to 5 μg mL^–1
Method: as §1, §3, §4

[8] = system: Staphylococcus aureus ATCC 29213; experiment: MIC testing by the microdilution method; format: cell-based; settings: microdilution, overnight 37 °C, tested 5000 to 5 μg mL^–1
Method: as §1, §3, §4

[9] = octanol/water partition coefficient (log P) by TNBS assay; format: physicochemical; settings: octanol/water mixture 1:1 v/v; mean, n = 3
Method: Log P of Arg and both Arg-esters were determined using an already described method.[15] Each compound was dissolved in an octanol/water mixture (1:1, v/v). Afterward, octanol and water phases were separated by a high-speed mini centrifuge (Fisher Scientific, Illinois USA), and the concentration of each compound in each phase was determined by the TNBS assay. For this, a 50 μL volume from each phase was diluted 10 times with 0.1 M sodium bicarbonate (pH 8.5) containing 40% (v/v) isopropyl alcohol. After dilution, 250 μL of the TNBS reagent (0.01%, v/v) prepared in 0.1 M sodium bicarbonate (pH 8.5) was added to each sample that was incubated at 37 °C. After 2 h, the reaction was stopped by adding 250 μL of 10% (m/v) SDS and 125 μL of 1 M HCl. The absorbance of each sample was measured at 335 nm using a Spark multifunctional microplate reader (Tecan Austria, GmbH). The logarithm of the octanol/water absorbance ratio was expressed as log P for each sample.

Compound | EC50 (concentration causing 50% cell death) (Caco-2 cells) [μg mL^–1] | zones of inhibition [1] [mm] | zones of inhibition [2] [mm] | zones of inhibition [3] [mm] | zones of inhibition [4] [mm] | minimum inhibitory concentration [5] [μg mL^–1] | minimum inhibitory concentration [6] [μg mL^–1] | minimum inhibitory concentration [7] [μg mL^–1] | minimum inhibitory concentration [8] [μg mL^–1] | other results
CCCCCC(=O)N[C@@H](CCCNC(=N)N)C(=O)OC [CAM, caproyl arginine methyl ester] | – | – | – | – | – | – | – | – | – | HC50 (red blood cells; reported in the literature): 38.5 μg mL^–1
CCCCCCCCCCCC(=O)N[C@@H](CCCNC(=N)N)C(=O)OC [LAM, lauroyl arginine methyl ester] | – | – | – | – | – | – | – | – | – | MIC (E. coli): 128 μg mL^–1; HC50 (red blood cells): 20.8 μg mL^–1
cetrimide [reference compound] | 20 | 19 | 19 | 12 | 19 | 5 | 5 | 20 | 5 | cell viability (Caco-2 cells; all tested concentrations (1000–3000 μg mL^–1)): < 10%; HC50 (concentration causing lysis of 50% red blood cells) (red blood cells (RBC)): 23 μg mL^–1
benzalkonium chloride [BAC, reference compound] | 20 | 23 | 20 | 19 | 21 | 5 | 5 | 10 | 5 | –
N=C(N)NCCC[C@H](N)C(=O)O [arginine, L-Arginine] | – | – | – | – | – | – | – | – | – | logP [9]: -1.9
CCCCCCCC(=O)N[C@@H](CCCNC(=N)N)C(=O)OCC [Nα-octanoyl arginine ethyl ester] | – | – | – | – | – | – | – | – | – | MIC (not effective at the highest tested concentration) (E. coli): > 256 μg mL^–1
